What was measured:
Assay in all cases: MTT proliferation assay, single agent
Assay type in all cases: cell-based
A431 = settings: Homo sapiens, A-431, SCC, 72 h, mean of several independent experiments
Method: (§1) The compound of formula (1) was tested using a Thiazolyl Blue Tetrazolium Bromide (MTT) proliferation assay in a panel of tumor cell lines of different origins.
(§2) All culture materials were obtained from Biological Industries (Kibbutz Beit Haemek, Israel) or Invitrogen (Paisley, Scotland, United Kingdom). The non-tumor cell lines HF and HACAT were provided by Vall d'Hebrón Hospital and GmbH, respectively. The PC9 naïve cell line was provided by Mayumi Ono and, the H3122, HCC78 and 11-18 by Daniel Costa. The PC9-GR1, PC9-GR2, PC9-GR3, PC9-GR4, PC9-GR5 and PC9-ER cell lines were derived in house by exposing the parental PC9 cell line to increasing concentrations of erlotinib (ER) or gefitinib (GR). The rest of the cell lines in which compound (1) was tested were purchased from ATCC (H23, H1975, H2228, A549, H460, Calu-6, H1650, SK-MES-1, EBC1, SNU1, AGS, N87, PC3, BxPC3, DLD1, HT29, SW48, SCC9,FaDu, AU565, Gingival, Prostate, SU-DHL-1 and A431). All cell lines were maintained in RPMI medium supplemented with 10% FBS, 50 µg/mL penicillin-streptomycin and 2 mM L-Glutamine. All cells were grown in a humidified atmosphere with 5% CO2 at 37°C.
(§3) Cell viability in response to single agent treatment was assessed by the Thiazolyl Blue Tetrazolium Bromide (MTT) (Sigma, St Louis, MO) assay. Cells from each cell line were seeded at 2000 to 10000 per well in 96-well plates. […] After treatment, cells were incubated with medium containing MTT (0.75 mg/mL in medium) for 1-2 h at 37°C. Culture medium with MTT was removed and formazan crystals reabsorbed in 100 µL DMSO (Sigma, St. Louis, MO). Cell viability was determined by measuring the absorbance at 492 nm, using a microplate reader (BioWhittaker, Walkersville, MD).
(§4) The IC50s shown are the mean of several independent experiments. Standard errors are also listed Table 2. SCC means squamous cell carcinoma, ADC means adenocarcinoma, GBM means glioblastoma.

CD74-ROS1 (G2032) = settings: Lung ADC, ROS1 translocated, 72 h, mean of several independent experiments
Method: as §1, §2, §3, §4

CD74-ROS1 (wt) = settings: Lung ADC, ROS1 translocated, 72 h, mean of several independent experiments
Method: as §1, §2, §3, §4

Calu6 = settings: Homo sapiens, Calu-6, Lung ADC, KRAS, 72 h, mean of several independent experiments
Method: as §1, §2, §3, §4

DLD1 = settings: Homo sapiens, DLD-1, Colon ADC, KRAS, 72 h, mean of several independent experiments
Method: as §1, §2, §3, §4

EBC-1 = settings: Homo sapiens, SCC Lung, c-Met ampl, 72 h, mean of several independent experiments
Method: as §1, §2, §3, §4

FaDu = settings: Homo sapiens, SCC Head&Neck, DDR2 wt, 72 h, mean of several independent experiments
Method: as §1, §2, §3, §4

H1568 = settings: NCI-H1568, Lung ADC, CD74-NRG1, 72 h, mean of several independent experiments
Method: as §1, §2, §3, §4

H1650 = settings: Homo sapiens, NCI-H1650, Lung ADC, EGFR ex19, 72 h, mean of several independent experiments
Method: as §1, §2, §3, §4

H1703 = settings: Homo sapiens, NCI-H1703, SCC Lung, DDR2 wt, 72 h, mean of several independent experiments
Method: as §1, §2, §3, §4

H1975 = settings: Homo sapiens, NCI-H1975, Lung ADC, EGFR ex21, 72 h, mean of several independent experiments
Method: as §1, §2, §3, §4

H460 = settings: Homo sapiens, NCI-H460, Lung ADC, KRAS, 72 h, mean of several independent experiments
Method: as §1, §2, §3, §4

H520 = settings: Homo sapiens, NCI-H520, SCC Lung, DDR2 wt, 72 h, mean of several independent experiments
Method: as §1, §2, §3, §4

I638F+T654M = settings: SCC Lung, DDR2 mutated, 72 h, mean of several independent experiments
Method: as §1, §2, §3, §4

I638F = settings: SCC Lung, DDR2 mutated, 72 h, mean of several independent experiments
Method: as §1, §2, §3, §4

L239R+T654M = settings: SCC Lung, DDR2 mutated, 72 h, mean of several independent experiments
Method: as §1, §2, §3, §4

L239R = settings: SCC Lung, DDR2 mutated, 72 h, mean of several independent experiments
Method: as §1, §2, §3, §4

PC3 = settings: Homo sapiens, PC-3, Prostate ADC, DDR2 wt, 72 h, no standard error printed
Method: as §1, §2, §3, §4

PC9-ER = settings: Homo sapiens, PC-9/ER, Lung ADC, EGFR ex19, 72 h, mean of several independent experiments
Method: as §1, §2, §3, §4

PC9-GR1 = settings: Lung ADC, EGFR ex19, 72 h, mean of several independent experiments
Method: as §1, §2, §3, §4

PC9-GR2 = settings: Lung ADC, EGFR ex19, 72 h, mean of several independent experiments
Method: as §1, §2, §3, §4

PC9-GR3 = settings: Lung ADC, EGFR ex19, 72 h, mean of several independent experiments
Method: as §1, §2, §3, §4

PC9-GR4 = settings: Lung ADC, EGFR ex19, 72 h, mean of several independent experiments
Method: as §1, §2, §3, §4

PC9-GR5 = settings: Lung ADC, EGFR ex19, 72 h, mean of several independent experiments
Method: as §1, §2, §3, §4

PC9 = settings: Homo sapiens, PC-9, Lung ADC, EGFR ex19, 72 h, mean of several independent experiments
Method: as §1, §2, §3, §4

SW48 = settings: Homo sapiens, Colon ADC, EGFR ex18, 72 h, mean of several independent experiments
Method: as §1, §2, §3, §4

WM793 = settings: Homo sapiens, Melanoma, BRAF V600E, 72 h, mean of several independent experiments
Method: as §1, §2, §3, §4

SMILES: Cn1c(=O)c(-c2c(Cl)cccc2Cl)cc2c(N)nc(Nc3ccccc3)nc21 [Compound (1), 4-amino-6-(2,6-dichlorophenyl)-8-methyl-2-(phenylamino)-pyrido[2,3-d]pyrimidin-7(8H)-one]
- IC50 (A431): 1350 nM
- IC50 (CD74-ROS1 (G2032)): 2000 nM
- IC50 (CD74-ROS1 (wt)): 1900 nM
- IC50 (Calu6): 720 nM
- IC50 (DLD1): 1000 nM
- IC50 (EBC-1): 5100 nM
- IC50 (FaDu): 4850 nM
- IC50 (H1568): 2430 nM
- IC50 (H1650): 2680 nM
- IC50 (H1703): 550 nM
- IC50 (H1975): 2070 nM
- IC50 (H460): 1000 nM
- IC50 (H520): 350 nM
- IC50 (I638F+T654M): 770 nM
- IC50 (I638F): 100 nM
- IC50 (L239R+T654M): 600 nM
- IC50 (L239R): 750 nM
- IC50 (PC3): 3400 nM
- IC50 (PC9-ER): 1180 nM
- IC50 (PC9-GR1): 1450 nM
- IC50 (PC9-GR2): 2160 nM
- IC50 (PC9-GR3): 880 nM
- IC50 (PC9-GR4): 2100 nM
- IC50 (PC9-GR5): 1610 nM
- IC50 (PC9): 2850 nM
- IC50 (SW48): 750 nM
- IC50 (WM793): 1600 nM

Source: patent EP3120851A1, “4-AMINO-6-(2,6-DICHLOROPHENYL)-8-METHYL-2-(PHENYLAMINO)-PYRIDO[2,3-D]PYRIMIDIN-7(8H)-ONE FOR TREATMENT OF SOLID CANCERS” (Pangaea Biotech S.L., priority 2015, dated 2017)
